Here are results for 18 compounds from patent US7524846B2, “Arylalkyl- and cycloalkylalkyl-piperazine derivatives and methods of their use” (Wyeth, priority 2003, dated 2009).

The test concerns the target T1, hNET (Homo sapiens, UniProt P23975).
T1 construct: expressed in transfected cells; host or cells: MDCK-Net6 (MDCK cells stably transfected with hNET)
The experiment in a line: Norepinephrine (NE) uptake assay in MDCK-Net6 cells. In kind it is cell-based. Conditions: [3H]NE uptake, MDCK-Net6 cells stably transfected with human hNET; for inhibition at 1 µM: 1 μM test compound; for EC50: test range 1 to 10,000 nM. On the procedure:
MDCK-Net6 cells, stably transfected with human hNET (Pacholczyk, T., R. D. Blakely, and S. G. Amara, Nature, 1991, 350(6316): p. 350-4) were cultured in growth medium containing high glucose DMEM (Gibco, Cat. No. 11995), 10% FBS (dialyzed, heat-inactivated, US Bio-Technologies, Lot FBD1129HI) and 500 μg/ml G418 (Gibco, Cat. No. 10131). Cells were plated at 300,000/T75 flask and cells were split twice weekly. The JAR cell line (human placental choriocarcinoma) was purchased from ATCC (Cat. No. HTB-144). The cells were cultured in growth medium containing RPMI 1640 (Gibco, Cat. No. 72400), 10% FBS (Irvine, Cat. No. 3000), 1% sodium pyruvate (Gibco, Cat. No. 1136) and 0.25% glucose. Cells were plated at 250,000 cells/T75 flask and split twice weekly. For all assays, cells were plated in Wallac 96-well sterile plates (PerkinElmer, Cat. No. 3983498).
On day 1, cells were plated at 3,000 cells/well in growth medium and maintained in a cell incubator (37° C., 5% CO2). On day 2, growth medium was replaced with 200 μl of assay buffer (25 mM HEPES; 120 mM NaCl; 5 mM KCl; 2.5 mM CaCl2; 1.2 mM MgSO4; 2 mg/ml glucose (pH 7.4, 37° C.)) containing 0.2 mg/ml ascorbic acid and 10 μM pargyline. Plates containing cells with 200 μl of assay buffer were equilibrated for 10 minutes at 37° C. prior to addition of compounds. A stock solution of desipramine was prepared in DMSO (10 mM) and delivered to triplicate wells containing cells for a final test concentration of 1 μM. Data from these wells were used to define non-specific NE uptake (minimum NE uptake). Test compounds were prepared in DMSO (10 mM) and diluted in assay buffer according to test range (1 to 10,000 nM). Twenty-five microliters of assay buffer (maximum NE uptake) or test compound were added directly to triplicate wells containing cells in 200 μl of assay buffer. The cells in assay buffer with test compounds were incubated for 20 minutes at 37° C. To initiate the NE uptake, [^3H]NE diluted in assay buffer (120 nM final assay concentration) was delivered in 25 μl aliquots to each well and the plates were incubated for 5 minutes (37° C.). The reaction was terminated by decanting the supernatant from the plate. The plates containing cells were washed twice with 200 μl assay buffer (37° C.) to remove free radioligand. The plates were then inverted, left to dry for 2 minutes, then reinverted and air-dried for an additional 10 minutes. The cells were lysed in 25 μl of 0.25 N NaOH solution (4° C.), placed on a shake table and vigorously shaken for 5 minutes. After cell lysis, 75 μl of scintillation cocktail was added to each well and the plates were sealed with film tape. The plates were returned to the shake table and vigorously shaken for a minimum of 10 minutes to ensure adequate partitioning of organic and aqueous solutions. The plates were counted in a Wallac Microbeta counter (PerkinElmer) to collect the raw cpm data.
For each experiment, a data stream of cpm values collected from the Wallac Microbeta counter was downloaded to a Microsoft Excel statistical application program. Calculations of EC50 values were made using the transformed-both-sides logistic dose response program written by Wyeth Biometrics Department. The statistical program uses mean cpm values from wells representing maximum binding or uptake (assay buffer) and mean cpm values from wells representing minimum binding or uptake ((1 μM desipramine (hNET) or 1 μM paroxetine (hSERT)). Estimation of the EC50 value was completed on a log scale and the line was fit between the maximum and minimum binding or uptake values. All graphic data representation was generated by normalizing each data point to a mean percent based on the maximum and minimum binding or uptake values. The EC50 values reported from multiple experiments were calculated by pooling the raw data from each experiment and analyzing the pooled data as one experiment.

Counter-ions that a name gives are not always drawn.

T1 sequence (P23975 whole entry): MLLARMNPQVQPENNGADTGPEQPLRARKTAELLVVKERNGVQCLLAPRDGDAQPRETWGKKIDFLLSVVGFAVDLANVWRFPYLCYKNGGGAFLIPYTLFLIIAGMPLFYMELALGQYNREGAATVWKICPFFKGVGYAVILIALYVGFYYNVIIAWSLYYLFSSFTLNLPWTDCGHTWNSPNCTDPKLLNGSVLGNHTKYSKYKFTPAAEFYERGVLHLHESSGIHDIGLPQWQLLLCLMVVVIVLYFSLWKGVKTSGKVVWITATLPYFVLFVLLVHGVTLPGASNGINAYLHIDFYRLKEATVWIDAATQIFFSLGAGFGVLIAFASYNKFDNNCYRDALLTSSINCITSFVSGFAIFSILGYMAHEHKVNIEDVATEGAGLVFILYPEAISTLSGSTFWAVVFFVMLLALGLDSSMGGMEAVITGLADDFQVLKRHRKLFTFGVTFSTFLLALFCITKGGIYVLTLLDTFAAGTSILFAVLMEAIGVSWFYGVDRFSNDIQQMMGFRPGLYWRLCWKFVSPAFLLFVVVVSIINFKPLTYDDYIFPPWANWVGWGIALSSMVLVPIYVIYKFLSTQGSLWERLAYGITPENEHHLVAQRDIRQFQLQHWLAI

`OC1(C(CN2CCN(Cc3ccc4ccccc4c3)CC2)c2cccc(Cl)c2)CCCCC1` (stereo not drawn) [Example 124, 1-{1-(3-chlorophenyl)-2-[4-(2-naphthylmethyl)piperazin-1-yl]ethyl}cyclohexanol dihydrochloride]: the inhibition at 1 µM turned out to be 94% and a half-maximal effect (EC50) was put at 190 nM.
With `OC1(C(CN2CCN(Cc3cccc(Oc4ccccc4)c3)CC2)c2cccc(Cl)c2)CCCCC1` (stereo not drawn) [Example 123, 1-{1-(3-chlorophenyl)-2-[4-(3-phenoxybenzyl)piperazin-1-yl]ethyl}cyclohexanol dihydrochloride], testing at 1 µM gave an inhibition of 96% and the EC50 was 290 nM.
The compound `OC1(C(CN2CCN(Cc3ccoc3)CC2)c2cccc(Cl)c2)CCCCC1` (stereo not drawn) [Example 125, 1-{1-(3-chlorophenyl)-2-[4-(3-furylmethyl)piperazin-1-yl]ethyl}cyclohexanol dihydrochloride] yielded an inhibition at 1 µM of 93% and an EC50 of 120 nM.
Compound `OC1(C(CN2CCN(Cc3ccc(Oc4ccccc4)cc3)CC2)c2cccc(Cl)c2)CCCCC1` (stereo not drawn) [Example 132, 1-{1-(3-chlorophenyl)-2-[4-(4-phenoxybenzyl)piperazin-1-yl]ethyl}cyclohexanol dihydrochloride] came in with an inhibition at 1 µM of 77% and a 50% effective concentration (EC50) of 70 nM.
The compound `OC1(C(CN2CCN(CC3CCCCC3)CC2)c2cccc(Cl)c2)CCCCC1` (stereo not drawn) [Example 126, 1-{1-(3-chlorophenyl)-2-[4-(cyclohexylmethyl)piperazin-1-yl]ethyl}cyclohexanol dihydrochloride] came in with an inhibition at 1 µM of 93% and an EC50 of 130 nM.
The corresponding values for `OC1(C(CN2CCN(CCc3ccccc3)CC2)c2cccc(Cl)c2)CCCCC1` (stereo not drawn) [Example 122, 1-{1-(3-chlorophenyl)-2-[4-(2-phenylethyl)piperazin-1-yl]ethyl}cyclohexanol dihydrochloride] are 96% and 75 nM.
The corresponding values for `OC1(C(CN2CCN(Cc3ccnc4ccccc34)CC2)c2cccc(Cl)c2)CCCCC1` (stereo not drawn) [Example 127, 1-{1-(3-chlorophenyl)-2-[4-(quinolin-4-ylmethyl)piperazin-1-yl]ethyl}cyclohexanol dihydrochloride] are 86% and 92 nM.
For `CCc1ccc(CN2CCN(CC(c3cccc(Cl)c3)C3(O)CCCCC3)CC2)o1` (stereo not drawn) [Example 128, 1-(1-(3-chlorophenyl)-2-{4-[(5-ethyl-2-furyl)methyl]piperazin-1-yl}ethyl)cyclohexanol dihydrochloride], in that order: 83% and 490 nM.
`OC1(C(CN2CCN(Cc3ccncc3)CC2)c2cccc(Cl)c2)CCCCC1` (stereo not drawn) [Example 133, 1-{1-(3-chlorophenyl)-2-[4-(pyridin-4-ylmethyl)piperazin-1-yl]ethyl}cyclohexanol dihydrochloride] showed an inhibition at 1 µM of 77% and an EC50 of 460 nM.
For `CC(CN1CCN(CC(c2cccc(Cl)c2)C2(O)CCCCC2)CC1)c1ccccc1` (stereo not drawn) [Example 129, 1-{1-(3-chlorophenyl)-2-[4-(2-phenylpropyl)piperazin-1-yl]ethyl}cyclohexanol dihydrochloride], in that order: 81% and 430 nM.
For `COc1ccc2cc(CN3CCN(CC(c4cccc(Cl)c4)C4(O)CCCCC4)CC3)ccc2c1` (stereo not drawn) [Example 117, 1-(1-(3-chlorophenyl)-2-{4-[(6-methoxy-2-naphthyl)methyl]piperazin-1-yl}ethyl)cyclohexanol dihydrochloride], in that order: 87% and 61 nM.
As to `OC1(C(CN2CCN(CC3CC3)CC2)c2cccc(Cl)c2)CCCCC1` (stereo not drawn) [Example 118, 1-{1-(3-chlorophenyl)-2-[4-(cyclopropylmethyl)piperazin-1-yl]ethyl}cyclohexanol dihydrochloride], testing at 1 µM gave an inhibition of 97% and the half-maximal effective concentration (EC50) is 57 nM.
The corresponding values for `CC(CCN1CCN(CC(c2cccc(Cl)c2)C2(O)CCCCC2)CC1)c1ccccc1` (stereo not drawn) [Example 121, 1-{1-(3-chlorophenyl)-2-[4-(3-phenylbutyl)piperazin-1-yl]ethyl}cyclohexanol dihydrochloride] are 97% and 22 nM.
For `OC1(C(CN2CCN(CC3CC=CCC3)CC2)c2cccc(Cl)c2)CCCCC1` (stereo not drawn) [Example 119, 1-{1-(3-chlorophenyl)-2-[4-(cyclohex-3-en-1-ylmethyl)piperazin-1-yl]ethyl}cyclohexanol dihydrochloride], in that order: 97% and 110 nM.
Regarding `OC1(C(CN2CCN(Cc3cccnc3)CC2)c2cccc(Cl)c2)CCCCC1` (stereo not drawn) [Example 134, 1-{1-(3-chlorophenyl)-2-[4-(pyridin-3-ylmethyl)piperazin-1-yl]ethyl}cyclohexanol dihydrochloride], 1 µM produced 69% inhibition and the EC50 was 930 nM.
As to `OC1CCCC(CN2CCN(CC(c3cccc(Cl)c3)C3(O)CCCCC3)CC2)O1` (stereo not drawn) [Example 120, 6-({4-[2-(3-chlorophenyl)-2-(1-hydroxycyclohexyl)ethyl]piperazin-1-yl}methyl)tetrahydro-2H-pyran-2-ol dihydrochloride], the inhibition at 1 µM is 97% and the EC50 worked out at 130 nM.
The corresponding values for `OC1(C(CN2CCN(Cc3ccc(OCc4ccccc4)cc3)CC2)c2cccc(Cl)c2)CCCCC1` (stereo not drawn) [Example 131, 1-[2-{4-[4-(benzyloxy)benzyl]piperazin-1-yl}-1-(3-chlorophenyl)ethyl]cyclohexanol dihydrochloride] are 78% and 170 nM.
As for `OC1(C(CN2CCN(Cc3cc4ccccc4o3)CC2)c2cccc(Cl)c2)CCCCC1` (stereo not drawn) [Example 130, 1-[2-[4-(1-benzofuran-2-ylmethyl)piperazin-1-yl]-1-(3-chlorophenyl)ethyl]cyclohexanol dihydrochloride], the inhibition at 1 µM is 79% and the 50% effective concentration (EC50) worked out at 890 nM.

The inhibition is the percentage by which the read-out fell short of the control. Read a high inhibition as a response far below the control. Usually EC50 stands for the concentration needed to bring the measured effect to its halfway point. Higher therefore signals weaker potency.
